The target of test [1] is T1, HLA-A*0201 (Homo sapiens, UniProt P04439, D140Y/D185E/D98H/E176V/E277Q/G131W/G231S/I119V/I121R/I166T/I218V/L300P/L318F/N151K/N90K/P208A/P217A/Q86G/Q94H/R138H/R169H/T345S). Conditions: Table II; relative to SEQ ID NO: 2.
In test [2] the target is T1, HLA-A*0201.
Test [3] concerns the target T1, HLA-A*0201. Conditions: fluorescence index, 16 hours, 23° C.
The subject of test [4] is TILN LAU 203. Briefly: 51Cr release assay, TILN recognition of peptide on T2 cells, TILN LAU 203.
The test system of test [5] is TILN LAU 132. In words: 51Cr release assay, TILN recognition of peptide on T2 cells, TILN LAU 132.
In test [6] the target is T1, HLA-A*0201. The conditions noted are these: relative to SEQ ID NO: 1.
The subject of test [7] is CTL clone M77.86. In words: 51Cr assay, recognition by Melan-A specific CTL clone M77.86. The class given is cell-based, human. The conditions noted are these: Table IV; for EC50: read-out: Peptide [nM] 50%; for Relative activity: relative to SEQ ID NO: 2.
Test [8] relates to CTL clone 7.10. In words: 51Cr assay, recognition by Melan-A specific CTL clone 7.10. The format is cell-based, human. Conditions: Table IV; for EC50: read-out: Peptide [nM] 50%; for Relative activity: relative to SEQ ID NO: 2.
For test [9], the system named is Melan-A specific CTL clone. Briefly: 51Cr assay, recognition by Melan-A specific CTL clone (third clone, name not given). The format is cell-based, human. The conditions noted are these: Table IV; for EC50: read-out: Peptide [nM] 50%; for Relative activity: relative to SEQ ID NO: 2.
Test [10] concerns CTL clone M77.80. In words: 51Cr assay, recognition by Melan-A specific CTL clone M77.80. The format is cell-based, human. The conditions noted are these: Table IV; for EC50: read-out: Peptide [nM] 50%; for Relative activity: relative to SEQ ID NO: 2.
For test [11], the system named is CTL clone 1.13. Briefly: 51Cr assay, recognition by Melan-A specific CTL clone 1.13. The format is cell-based, human. The conditions noted are these: Table IV; for EC50: read-out: Peptide [nM] 50%; for Relative activity: relative to SEQ ID NO: 2.
The target of test [12] is T1, HLA-A*0201. This is another data set of the same source.
Test [13] concerns five HLA-A*0201 restricted Melan-A specific CTL clones. Briefly: Recognition by five HLA-A*0201 restricted Melan-A specific CTL clones, statements. The class given is cell-based, human. Conditions: compared with SEQ ID NO: 2.
The subject of test [14] is panel of the CTLs. Briefly: Recognition assay dissecting the CTL panel (Example 10).
[15] abbreviates: Table I, [nM]50% SEQ ID NO: 2 / [nM]50% test peptide.
[16] abbreviates: read-out: Peptide [nM] 50%, Table I, T2 targets, effector:target 30:1, concentration giving 50% of maximum activity.
Setting [17] is: read-out:, Table III, dose response, T2 cells.
The mark [18] stands for this setting: Table III, relative to SEQ ID NO: 2.

The values below come from patent US7713714B2, “Isolated nona- and decapeptides which bind to HLA molecules, and the use thereof” (Ludwig Institute for Cancer Research, priority 1997, dated 2010).

Read-outs that look alike come from different tables or passages of the source.

The compound `C[C@H](NC(=O)[C@@H](N)CCC(=O)O)C(=O)N[C@@H](CC(=O)O)C(=O)N1CCC[C@H]1C(=O)N[C@H](C(=O)NCC(=O)N[C@@H](Cc1c[nH]cn1)C(=O)N[C@@H](CO)C(=O)N[C@@H](Cc1ccc(O)cc1)C(=O)O)[C@@H](C)O` [SEQ ID NO: 21] returned a Relative competitor activity in test [1] below 0.6. Besides, the “binding to HLA-A*0201 compared with SEQ ID NO: 2, in words” value in test [2] is “no binding”.

“ILTVILGVL [SEQ ID NO: 4, reference compound]”: the “binding to HLA-A*0201 compared with SEQ ID NO: 2, in words” value in test [2] is listed as “comparable to SEQ ID NO: 2”. Also, the “relative binding activity, in words” value in test [3] is recorded as “about the same as SEQ ID NO: 2”. In addition, the Relative activity was <4 × 10^−3 in test [4] (setting [15]) and <1.5 × 10^−3 in [5] (setting [15]). Also, the EC50 in [4] (setting [16]) and in [5] (setting [16]) was above 10000 nM each time.

Regarding “Glu Ala Ala Gly Ile Gly Ile Ala Thr Val [SEQ ID NO: 23]”, the “change in competitor activity, in words” value in test [6] was “did not result in significant changes in activity”.

Regarding “Glu Ala Ala Gly Ile Gly Ile Leu Ala Val [SEQ ID NO: 24]”, in test [6], the “change in competitor activity, in words” value is listed as “did not result in significant changes in activity”.

In the case of “Lys Leu Val Val Val Gly Ala Val Gly Val [SEQ ID NO: 20]”, in [2] (peptide used alone, CTL clone 7 RAS, T2 cells), the lysis percentage came out at 80%.

With `CC[C@H](C)[C@H](NC(=O)CNC(=O)[C@H](CC(C)C)NC(=O)[C@H](C)N)C(=O)NCC(=O)N[C@H](C(=O)N[C@@H](CC(C)C)C(=O)N[C@H](C(=O)N[C@H](C(=O)O)C(C)C)[C@@H](C)O)[C@@H](C)CC` [SEQ ID NO: 5], the EC50 is 90 nM in [7]; above 1000 nM in test [8]; above 1000 nM in test [9]; above 1000 nM in test [10]; above 10000 nM in test [11]; above 1000 nM in [4] (setting [17]). In test [5] (setting [17]), the EC50 is above 1000 nM. Further, in test [12], the “stability of peptide/HLA-A*0201 complexes” value is reported as “intermediate stability”.

With `CC[C@H](C)[C@H](NC(=O)CNC(=O)[C@H](C)NC(=O)[C@H](C)NC(=O)[C@@H](N)Cc1ccccc1)C(=O)NCC(=O)N[C@H](C(=O)N[C@@H](CC(C)C)C(=O)N[C@H](C(=O)N[C@H](C(=O)O)C(C)C)[C@@H](C)O)[C@@H](C)CC` [SEQ ID NO: 14], the EC50 is 0.005 nM in test [7]; 7 nM in test [8]; above 1000 nM in test [9]; above 1000 nM in [10]; 200 nM in [11]; 1 nM in test [4] (setting [17]). The EC50 in test [5] (setting [17]) stood at 0.05 nM. Besides, the Relative activity was 3000 in test [7]; 7 in test [8]; below 0.3 in [9]; below 0.3 in test [10]; 20 in test [11]; 60 in test [4] (setting [18]). In [5] (setting [18]), this compound gave a Relative activity of 600. The “recognition by the five CTL clones, in words” value (“recognition … in words” for short) in test [13] is “reduced recognition by the CTLs”. The “recognition by a fifth CTL” value in [14] was “not”. For the same compound, in test [14], the “recognition by four of the CTLs” value is “equally well”. In addition, the “recognition by two other CTLs” value in test [14] is listed as “recognized”.

With `CC[C@H](C)[C@H](NC(=O)CNC(=O)[C@H](CCSC)NC(=O)[C@H](C)N)C(=O)NCC(=O)N[C@H](C(=O)N[C@@H](CC(C)C)C(=O)N[C@H](C(=O)N[C@H](C(=O)O)C(C)C)[C@@H](C)O)[C@@H](C)CC` [SEQ ID NO: 6], the EC50 in test [7] is above 1000 nM; in test [8], above 1000 nM; in [9], above 1000 nM; in test [10] it was above 1000 nM; in [11] it was above 10000 nM; in test [4] (setting [17]) it was above 1000 nM. In addition, the EC50 in [5] (setting [17]) was above 1000 nM. Moreover, the “stability of peptide/HLA-A*0201 complexes” value in [12] is reported as “intermediate stability”.

Take `CC[C@H](C)[C@H](NC(=O)CNC(=O)[C@H](CC(C)C)NC(=O)[C@H](C)NC(=O)[C@@H](N)CCC(=O)O)C(=O)NCC(=O)N[C@H](C(=O)N[C@@H](CC(C)C)C(=O)N[C@H](C(=O)N[C@H](C(=O)O)C(C)C)[C@@H](C)O)[C@@H](C)CC` [SEQ ID NO: 11]: the EC50 in [7] is 0.015 nM; in test [8], 0.5 nM; in test [9], 0.015 nM; in test [10] it was 0.5 nM; in test [11], 20 nM; in test [4] (setting [17]), above 1000 nM. Moreover, the EC50 in test [5] (setting [17]) is above 1000 nM. Moreover, the “recognition … in words” value in test [13] is on record as “reduced recognition for four of five”. The “stability of peptide/HLA-A*0201 complexes” value in test [12] is “intermediate stability”.

`CC[C@H](C)[C@H](NC(=O)CNC(=O)[C@H](C)NC(=O)[C@H](C)NC(=O)[C@@H](N)Cc1ccc(O)cc1)C(=O)NCC(=O)N[C@H](C(=O)N[C@@H](CC(C)C)C(=O)N[C@H](C(=O)N[C@H](C(=O)O)C(C)C)[C@@H](C)O)[C@@H](C)CC` [SEQ ID NO: 13]: the EC50 was 0.015 nM in [7]; 35 nM in test [8]; above 1000 nM in test [9]; 1000 nM in [10]; above 10000 nM in test [11]; 5 nM in [4] (setting [17]). Besides, in test [5] (setting [17]), the EC50 turned out to be 1 nM. The Relative activity was 1000 in test [7]; 1.4 in [8]; below 0.3 in test [9]; 0.3 in test [10]; below 0.4 in [11]; 20 in [4] (setting [18]). The same compound had a Relative activity in [5] (setting [18]) of 30. Besides, the “recognition … in words” value in [13] is recorded as “reduced recognition by the CTLs”. Besides, the “recognition by a fifth CTL” value in test [14] is reported as “recognized”. In addition, the “recognition by four of the CTLs” value in [14] is on record as “equally well”. Further, in test [14], the “recognition by two other CTLs” value was “not”.

For the compound `CC[C@H](C)[C@H](NC(=O)CNC(=O)[C@H](CCSC)NC(=O)[C@H](C)NC(=O)[C@@H](N)CCC(=O)O)C(=O)NCC(=O)N[C@H](C(=O)N[C@@H](CC(C)C)C(=O)N[C@H](C(=O)N[C@H](C(=O)O)C(C)C)[C@@H](C)O)[C@@H](C)CC` [SEQ ID NO: 12], the EC50 was 550 nM in test [7]; above 1000 nM in [8]; 40 nM in test [9]; above 1000 nM in [10]; above 10000 nM in test [11]; above 1000 nM in test [4] (setting [17]). Further, the EC50 in [5] (setting [17]) was above 1000 nM. Further, the “recognition … in words” value in test [13] is recorded as “recognition improved”. The “stability of peptide/HLA-A*0201 complexes” value in [12] is “intermediate stability”.

Consider `CC[C@H](C)[C@H](NC(=O)CNC(=O)[C@H](C)NC(=O)[C@@H](N)CCSC)C(=O)NCC(=O)N[C@H](C(=O)N[C@@H](CC(C)C)C(=O)N[C@H](C(=O)N[C@H](C(=O)O)C(C)C)[C@@H](C)O)[C@@H](C)CC` [SEQ ID NO: 8], for which the EC50 was found to be 0.6 nM in test [7]; 15 nM in test [8]; 200 nM in test [9]; 0.5 nM in test [10]; 80 nM in test [11]; 8 nM in test [4] (setting [17]). Besides, the EC50 in test [5] (setting [17]) came to 2.5 nM. For the same compound, in [12], the “stability of peptide/HLA-A*0201 complexes” value is recorded as “unstable complexes, which decay within one hour”.
